The values below come from the supplement of paper PMC5722580.

The subject of one experiment is NK-92. In words: drug sensitivity score (viability inhibition); higher = more sensitive. As to conditions: 72 h; IL2 2.5 ng/ml. In short, it runs like this:
(§1)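 NK cell lines were plated at 3 000 cells/well into 384-well drug plates with 5-8 concentrations across a 10 000-fold range, in complete RPMI with 2.5 ng/ml IL2. Viability was read with CellTiter-Glo after 72 h at 37 °C, 5% CO2. The drug sensitivity score used here is an optimized area under the dose-response curve.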

The subject of a further experiment is YT. The experiment is described as above. Particulars: 72 h; IL2 2.5 ng/ml. In outline: as §1
The test system of the next experiment is SNK6. The description is as above. Particulars: 72 h; IL2 2.5 ng/ml. In outline: as §1
The next experiment has as its system KHYG-1. The experiment is described as above. Particulars: 72 h; IL2 2.5 ng/ml. In outline: as §1
Another experiment deals with KAI3. Described as above. As to conditions: 72 h; IL2 2.5 ng/ml. In outline:
as §1

The next experiment has as its system NKL. The experiment is described as above. As to conditions: 72 h; IL2 2.5 ng/ml. In short, it runs like this: as §1
The subject of a further experiment is NK-YS. The experiment is described as above. Particulars: 72 h; IL2 2.5 ng/ml. In outline: as §1
Another experiment relates to HEK293-SIE STAT3 Y640F. In words: drug sensitivity score (inhibition of STAT3 luciferase reporter); higher = stronger inhibition. Particulars: 6 h; IL6 0 ng/ml. In outline:
(§2)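 Scores are optimized areas under reporter-inhibition dose-response curves. They come from HEK293 cells with a STAT3-driven sis-inducible element luciferase reporter and lentivirally introduced wild-type or mutant STAT3, plated at 10 000 cells/well in 384-well plates, with IL6 (100 ng/ml) given to wild-type cells only. After 6 h with drug at 5-8 concentrations across a 10 000-fold range, luciferase was read with ONE-Glo, and results from two experiments were averaged.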
Background: In a reporter assay the amount or activity of a reporter protein is the signal.

A further experiment concerns HEK293-SIE STAT3 WT. The experiment is described as above. Particulars: 6 h; STAT3: WT; IL6 100 ng/ml. In short, it runs like this: as §2

The structures appear in SMILES notation.

`CC[C@H](Nc1ncnc2[nH]cnc12)c1nc2cccc(F)c2c(=O)n1-c1ccccc1` [Idelalisib]: the drug sensitivity score in the experiment with NK-92 amounted to 9.76 DSS; with YT, 1.42 DSS; in the experiment on SNK6 it was 5.48 DSS; in the experiment with KHYG-1, 0.4 DSS; with KAI3 it was 1.38 DSS; in the experiment on NKL, 1.96 DSS. Besides, the drug sensitivity score in the experiment on NK-YS was 0.598 DSS; in the experiment on HEK293-SIE STAT3 Y640F it was 3.9 DSS; in the experiment on HEK293-SIE STAT3 WT, 0 DSS.
`Cn1c(=O)n(-c2ccc(C(C)(C)C#N)cc2)c2c3cc(-c4cnc5ccccc5c4)ccc3ncc21` [Dactolisib]: the drug sensitivity score with NK-92 is 12 DSS; with YT, 13.4 DSS; with SNK6, 8.33 DSS; in the experiment with KHYG-1 it was 14 DSS; with KAI3 it was 10.3 DSS; with NKL, 18.2 DSS. Besides, the drug sensitivity score was 15.8 DSS with NK-YS, 12.8 DSS in the experiment with HEK293-SIE STAT3 Y640F and 15.1 DSS in the experiment on HEK293-SIE STAT3 WT.
Consider `C[C@@H]1C=C2C(=O)O[C@@H]3CC[C@H](C1)[C@]23O` [Galiellalactone], for which the drug sensitivity score with NK-92 amounted to 3.98 DSS; in the experiment on YT, 1.84 DSS; with SNK6, 6.92 DSS; in the experiment with KHYG-1 it was 4.09 DSS; in the experiment with KAI3, 5 DSS; with NKL, 1.09 DSS. Also, the drug sensitivity score worked out at 3.55 DSS in the experiment with NK-YS, 0 DSS in the experiment on HEK293-SIE STAT3 Y640F and 0 DSS in the experiment on HEK293-SIE STAT3 WT.
As to `COC(=O)C[C@](O)(CCCC(C)(C)O)C(=O)O[C@@H]1C(OC)=C[C@]23CCCN2CCc2cc4c(cc2[C@H]13)OCO4` [homoharringtonine], the drug sensitivity score in the experiment on NK-92 amounted to 31.2 DSS; in the experiment on YT, 34.5 DSS; in the experiment with SNK6 it was 34.6 DSS; in the experiment on KHYG-1, 29.6 DSS; in the experiment on KAI3, 33.4 DSS; in the experiment with NKL, 32.2 DSS. Further, the drug sensitivity score in the experiment with NK-YS worked out at 32.5 DSS; in the experiment on HEK293-SIE STAT3 Y640F, 36.6 DSS; in the experiment on HEK293-SIE STAT3 WT it was 39 DSS.
On to `CCN(CC)CCOc1ccc(C(=C(Cl)c2ccccc2)c2ccccc2)cc1` [Clomifene], for which the drug sensitivity score in the experiment with NK-92 was 5.49 DSS; in the experiment with YT, 4.23 DSS; in the experiment with SNK6, 5.13 DSS; with KHYG-1 it was 5.07 DSS; in the experiment on KAI3, 5.61 DSS; in the experiment with NKL, 4.4 DSS. The figures for the drug sensitivity score with NK-YS, in the experiment with HEK293-SIE STAT3 Y640F and in the experiment on HEK293-SIE STAT3 WT were 2.67 DSS, 0 DSS and 1.9 DSS, respectively.
In the case of `CNC(=O)c1cc(Oc2ccc(NC(=O)Nc3ccc(Cl)c(C(F)(F)F)c3)c(F)c2)ccn1` [Regorafenib], the drug sensitivity score in the experiment on NK-92 stood at 8.97 DSS; in the experiment with YT, 8.71 DSS; with SNK6 it was 10.1 DSS; in the experiment on KHYG-1, 6.89 DSS; in the experiment with KAI3, 2.25 DSS; in the experiment with NKL, 5.14 DSS. Besides, the drug sensitivity score came out at 7.25 DSS with NK-YS, 5.5 DSS in the experiment with HEK293-SIE STAT3 Y640F and 6.65 DSS in the experiment on HEK293-SIE STAT3 WT.
In the case of `C[C@@H]1C[C@H]2[C@@H]3CCC4=CC(=O)C=C[C@]4(C)[C@@]3(F)[C@@H](O)C[C@]2(C)[C@@]1(O)C(=O)CO` [Dexamethasone], the drug sensitivity score in the experiment on NK-92 stood at 0 DSS; in the experiment on YT it was 9.73 DSS; with SNK6, 0 DSS; in the experiment on KHYG-1 it was 15.6 DSS; with KAI3 it was 1.14 DSS; with NKL it was 24.6 DSS. The drug sensitivity score in the experiment with NK-YS was found to be 3.83 DSS; in the experiment on HEK293-SIE STAT3 Y640F it was 2.6 DSS; with HEK293-SIE STAT3 WT, 1.8 DSS.
As to `CO[C@H]1C[C@@H]2CC[C@@H](C)[C@@](O)(O2)C(=O)C(=O)N2CCCC[C@H]2C(=O)O[C@H]([C@H](C)C[C@@H]2CC[C@@H](OCCO)[C@H](OC)C2)CC(=O)[C@H](C)/C=C(\C)[C@@H](O)[C@@H](OC)C(=O)[C@H](C)C[C@H](C)/C=C/C=C/C=C/1C` [Everolimus], the drug sensitivity score in the experiment on NK-92 is 1.19 DSS; with YT it was 11.8 DSS; in the experiment on SNK6, 12.2 DSS; in the experiment on KHYG-1 it was 5.9 DSS; in the experiment on KAI3, 6.6 DSS; with NKL, 17.4 DSS. Also, the results for the drug sensitivity score in the experiment on NK-YS, in the experiment with HEK293-SIE STAT3 Y640F and in the experiment on HEK293-SIE STAT3 WT were 16.8 DSS, 8.9 DSS and 3.15 DSS, respectively.
As for `COc1cc(Nc2c(C#N)cnc3cc(OCCCN4CCN(C)CC4)c(OC)cc23)c(Cl)cc1Cl` [Bosutinib], the drug sensitivity score was 7.49 DSS in the experiment on NK-92; 5.38 DSS in the experiment with YT; 5.08 DSS in the experiment on SNK6; 7.49 DSS in the experiment on KHYG-1; 6.47 DSS in the experiment with KAI3; 5.37 DSS with NKL. Moreover, the drug sensitivity score was determined as 5.25 DSS with NK-YS, 8.4 DSS in the experiment on HEK293-SIE STAT3 Y640F and 0.775 DSS in the experiment on HEK293-SIE STAT3 WT.
In the case of `C[C@H]1C[C@@H]2[C@H]([C@@H](O)C[C@@]3(C)[C@H]2CC[C@]3(O)C(=O)CO)[C@@]2(C)C=CC(=O)C=C12` [Methylprednisolone], the drug sensitivity score in the experiment with NK-92 was determined as 0 DSS; in the experiment with YT, 8.81 DSS; with SNK6 it was 0.065 DSS; with KHYG-1 it was 10.5 DSS; in the experiment with KAI3 it was 1.27 DSS; in the experiment on NKL, 16 DSS. For the same compound, the drug sensitivity score turned out to be 3.19 DSS with NK-YS, 0.4 DSS in the experiment with HEK293-SIE STAT3 Y640F and 0 DSS in the experiment on HEK293-SIE STAT3 WT.
On to `CC1(COc2ccc3c(c2)ncn3-c2ccc3cccc(N4CCC(N)CC4)c3n2)COC1` [Crenolanib], for which the drug sensitivity score in the experiment with NK-92 is 9.79 DSS; with YT it was 7.98 DSS; with SNK6, 9.96 DSS; in the experiment with KHYG-1, 7.73 DSS; in the experiment on KAI3 it was 5.4 DSS; in the experiment on NKL, 10.3 DSS. In addition, the drug sensitivity score in the experiment on NK-YS amounted to 7.55 DSS; with HEK293-SIE STAT3 Y640F, 4.25 DSS; in the experiment with HEK293-SIE STAT3 WT, 3.05 DSS.
In the case of `CC(C)(C)c1cnc(CSc2cnc(NC(=O)C3CCNCC3)s2)o1` [SNS-032], the drug sensitivity score with NK-92 turned out to be 19.2 DSS; with YT it was 26.1 DSS; in the experiment on SNK6 it was 10.5 DSS; in the experiment with KHYG-1, 20.5 DSS; in the experiment on KAI3 it was 21.1 DSS; with NKL it was 29.4 DSS. Further, the drug sensitivity score amounted to 30.3 DSS in the experiment with NK-YS, 18.9 DSS in the experiment with HEK293-SIE STAT3 Y640F and 21.8 DSS with HEK293-SIE STAT3 WT.
For the compound `CO[C@@H](C(=O)N1Cc2[nH]nc(NC(=O)c3ccc(N4CCN(C)CC4)cc3)c2C1)c1ccccc1` [Danusertib], the drug sensitivity score with NK-92 was 6.91 DSS; in the experiment with YT it was 6.55 DSS; with SNK6, 14.4 DSS; in the experiment with KHYG-1, 13 DSS; with KAI3, 7.82 DSS; in the experiment on NKL, 5.43 DSS. The drug sensitivity score in the experiment on NK-YS came to 12.9 DSS; in the experiment on HEK293-SIE STAT3 Y640F, 5.2 DSS; in the experiment on HEK293-SIE STAT3 WT, 6.8 DSS.
As to `Cn1cc(CNCC2CCN(c3ncc(C(=O)NO)cn3)CC2)c2ccccc21` [Quisinostat], the drug sensitivity score is 13.8 DSS with NK-92; 14.2 DSS with YT; 13.3 DSS in the experiment on SNK6; 20.4 DSS in the experiment on KHYG-1; 16.1 DSS in the experiment on KAI3; 22 DSS in the experiment on NKL. In addition, the results for the drug sensitivity score with NK-YS, in the experiment on HEK293-SIE STAT3 Y640F and in the experiment with HEK293-SIE STAT3 WT were 22 DSS, 1.9 DSS and 2.3 DSS, respectively.
As for `CN[C@@H]1C[C@H]2O[C@@](C)([C@@H]1OC)n1c3ccccc3c3c4c(c5c6ccccc6n2c5c31)C(=O)N[C@H]4O` [UCN-01], the drug sensitivity score worked out at 27.3 DSS in the experiment on NK-92; 20.5 DSS in the experiment with YT; 30.1 DSS in the experiment on SNK6; 30.7 DSS in the experiment with KHYG-1; 29.8 DSS with KAI3; 26.9 DSS with NKL. The drug sensitivity score was determined as 28.7 DSS in the experiment with NK-YS, 20.3 DSS with HEK293-SIE STAT3 Y640F and 22.9 DSS in the experiment on HEK293-SIE STAT3 WT.
For the compound `COc1ccc(-c2ccc3c(N4CCOC[C@@H]4C)nc(N4CCOC[C@@H]4C)nc3n2)cc1CO` [AZD8055], the drug sensitivity score with NK-92 was 16.3 DSS; in the experiment on YT, 16.7 DSS; in the experiment with SNK6 it was 14.9 DSS; in the experiment with KHYG-1, 16.7 DSS; in the experiment on KAI3 it was 14.1 DSS; in the experiment on NKL, 23.3 DSS. Also, the figures for the drug sensitivity score in the experiment with NK-YS, in the experiment with HEK293-SIE STAT3 Y640F and in the experiment with HEK293-SIE STAT3 WT were 19.6 DSS, 18.6 DSS and 20.2 DSS, respectively.
